{
  "source": "patent US20190364896A1",
  "about": "“SYNERGISTIC WEED CONTROL FROM APPLICATIONS OF PYRIDINE CARBOXYLIC ACID HERBICIDES AND ALS INHIBITORS” (Dow AgroSciences LLC, priority 2014, published 2019)",
  "assay_in_all_cases": "Postemergence herbicidal activity, greenhouse trial (visual injury 0-100%)",
  "format_in_all_cases": "in vivo",
  "key": {"[1]": {"system": "sunflower (Helianthus annuus, HELAN)"}, "[2]": {"system": "velvetleaf (Abutilon theophrasti, ABUTH)"}, "[3]": {"system": "nutsedge (Cyperus esculentus, CYPES)", "procedure,_shortened": "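Greenhouse-grown plants at the second to third true leaf stage were sprayed with two-way mixtures in 1.5% v/v Agri-dex crop oil concentrate at 187 L/ha; rates in g ae/ha for component (a) and g ai/ha for component (b). Injury scored visually 0–100% versus solvent-blank controls after 20–22 d, with expected mixture effects from Colby's equation.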"}, "[4]": {"system": "wild pansy (Viola tricolor, VIOTR)", "conditions": "Viola tricolor, post-emergence, read-out: % visual injury Obs", "procedure,_shortened": "(§1)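 Herbicide mixtures (an EC-formulated compound plus a partner herbicide) are sprayed at 187 L/ha on greenhouse plants at the second or third true leaf stage, with rates in g ae/ha for (a) and g ai/ha for (b).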"}, "[5]": {"system": "thistle (Cirsium arvense, CIRAR)", "procedure,_shortened": "as §1"}, "[6]": {"system": "kochia (Kochia scoparia, KCHSC)", "conditions": "Bassia scoparia, post-emergence, read-out: % visual injury Obs", "procedure,_shortened": "as §1"}, "[7]": {"system": "wild buckwheat (Polygonum convolvulus, POLCO)", "conditions": "Fallopia convolvulus, post-emergence, read-out: % visual injury Obs", "procedure,_shortened": "as §1"}},
  "note": "Values joined by “and” are separate entries in the source; they are usually repeats but may differ in a detail not shown here. Equal values may be shown once. Read-outs that look alike come from different tables or passages of the source.",
  "data": [
    {"smiles": "Nc1c(F)c(-c2ccc3cc[nH]c3c2F)nc(C(=O)O)c1Cl", "note": "[Compound 1]", "values": [
      {"measurement": "% visual injury Obs", "setting": "[1]; 5 g ae/ha", "result": 90, "unit": "%"},
      {"measurement": "% visual injury Obs", "setting": "[1]; 10 g ae/ha", "result": 90, "unit": "%"},
      {"measurement": "% visual injury Obs", "setting": "[1]; HELAN, Compound 1 5 g ae/ha", "result": 70, "unit": "%"},
      {"measurement": "% visual injury Obs", "setting": "[2]; 5 g ae/ha", "result": "50% and 70%"},
      {"measurement": "% visual injury Obs", "setting": "[2]; 10 g ae/ha", "result": 60, "unit": "%"},
      {"measurement": "% visual injury Obs", "setting": "[2]; ABUTH, Compound 1 5 g ae/ha", "result": 70, "unit": "%"},
      {"measurement": "% visual injury Obs", "setting": "[3]; CYPES, Compound 1 5 g ae/ha", "result": 10, "unit": "%"},
      {"measurement": "pest or weed control at 5 g/ha", "setting": "[3]; Cyperus, post-emergence, 5 g ae/ha, read-out: % visual injury Obs", "result": 10, "unit": "%"},
      {"measurement": "pest or weed control at 10 g/ha", "setting": "[4]; 10 g ae/ha", "result": 10, "unit": "%"},
      {"measurement": "pest or weed control at 10 g/ha", "setting": "[4]; VIOTR, Compound 1 10 g ae/ha", "result": 10, "unit": "%"},
      {"measurement": "% visual injury Obs", "setting": "[5]; CIRAR, Compound 1 5 g ae/ha", "result": 10, "unit": "%"},
      {"measurement": "pest or weed control at 5 g/ha", "setting": "[5]; Cirsium arvense, post-emergence, 5 g ae/ha, read-out: % visual injury Obs", "result": 10, "unit": "%"},
      {"measurement": "pest or weed control at 5 g/ha", "setting": "[6]; 5 g ae/ha", "result": 65, "unit": "%"},
      {"measurement": "pest or weed control at 10 g/ha", "setting": "[6]; 10 g ae/ha", "result": 60, "unit": "%"},
      {"measurement": "pest or weed control at 5 g/ha", "setting": "[6]; KCHSC, Compound 1 5 g ae/ha", "result": 60, "unit": "%"},
      {"measurement": "pest or weed control at 10 g/ha", "setting": "[6]; KCHSC, Compound 1 10 g ae/ha", "result": 60, "unit": "%"},
      {"measurement": "pest or weed control at 5 g/ha", "setting": "[7]; 5 g ae/ha", "result": 70, "unit": "%"},
      {"measurement": "pest or weed control at 5 g/ha", "setting": "[7]; POLCO, Compound 1 5 g ae/ha", "result": 65, "unit": "%"}
    ]},
    {"smiles": "CCCOc1nn(C(=O)NS(=O)(=O)c2ccccc2C(=O)OC)c(=O)n1C", "note": "[Propoxycarbazone, propoxycarbazone]", "values": [
      {"measurement": "% visual injury Obs", "setting": "[1]; 7.5 g ai/ha", "result": 85, "unit": "%"},
      {"measurement": "% visual injury Obs", "setting": "[2]; 7.5 g ai/ha", "result": 50, "unit": "%"},
      {"measurement": "pest or weed control at […]", "setting": "[3]; Cyperus, post-emergence, 7.5 g ai/ha, read-out: % visual injury Obs", "result": 75, "unit": "%"},
      {"measurement": "pest or weed control at […]", "setting": "[4]; 7.5 g ai/ha", "result": 20, "unit": "%"},
      {"measurement": "pest or weed control at […]", "setting": "[5]; Cirsium arvense, post-emergence, 7.5 g ai/ha, read-out: % visual injury Obs", "result": 75, "unit": "%"},
      {"measurement": "pest or weed control at […]", "setting": "[6]; 7.5 g ai/ha", "result": 30, "unit": "%"},
      {"measurement": "pest or weed control at […]", "setting": "[7]; 7.5 g ai/ha", "result": 10, "unit": "%"}
    ]}
  ]
}
